Entries after “also recorded” stand apart in the source; their conditions may differ.
What was measured:
erbB2 [1] = target: T1, erbB2 (Homo sapiens, UniProt P04626); assay: IP Western blot of p-Tyr/erbB2 in BT474 cells, with or without EGF; assay type: cell-based; set-up: endogenous in cells; settings: BT474, 1 μM, 24 h serum-free; not reversed by EGF
Protocol: The erbB2 overexpressing human breast adenocarcinoma cell line, BT474, was obtained from the American Type Culture Collection (Rockville, M, USA). […] The EGFR overexpressing LICR-LON-HN5 head and neck carcinoma cell line, HN5, was kindly provided by Helmout Modjtahedi at the Institute of Cancer Research, Surrey, U.K.
Cell cultures were maintained in a humidified atmosphere of 5% CO2 at 37° C.
Protein concentrations were determined using a modification of the Bradford method (Bio-Rad Laboratory).
For IP Western blots, equivalent amounts of protein were precleared with Protein G Plus/Protein A agarose overnight at 4° C. Precleared lysates were then incubated overnight at 4° C. with specific antibodies. Immune complexes were precipitated with Protein G Plus/Protein A agarose beads, washed in RIPA buffer and then boiled in sample loading buffer. Steady state levels of total Erk1/2 and activated Erk1/2 (p-Erk) as well as total AKT protein and activated AKT (p-AKT) protein were assessed by Western blot. […] Proteins were transferred to Immobilon-P or nitrocellulose membranes. Efficiency and equal loading of proteins was evaluated by Ponceau S staining. Membranes were blocked for 1 hr in TBS (25 mM Tris-HCl, pH 7.4, 150 mM NaCl, 2.7 mM KCl) containing 4% (w/v) lowfat milk or 3% BSA (w/v). Membranes were then probed with specific antibodies recognizing target proteins. […]

erbB2 [2] = target: T1, erbB2; assay: Clinical tumor biopsies, erbB2 p-tyr by IHC; settings: patient 361, 1200 mg/day, Day 21, data not shown
pAKT = assay: Confocal microscopy of AU-565 cells exposed to epigen; assay type: cell-based, human; settings: epigen and GW572016, confocal microscopy, results not shown
From the text: In response to NDF (Neu Differentiating Factor or Heregulin), these cells divide and multiply. AU565 cells were stained with antibodies to show total ERK, or stained with antibodies to show phosphorylated ERK (p-Erk).

Erk1/2 = assay: BT474 tumor xenograft, p-Erk1/2 and total Erk1/2 by Western blot; assay type: in vivo, C.B-17 SCID mice
Protocol: (§1) The tumor implant was removed after the final treatment dose. Activated receptor (p-Tyr/ErbB-2) was assessed by IP Western blot and total ErbB-2 steady state protein (ErbB-2), total Erk1/2 and activated Erk1/2 (p-Erk1/2) were assessed by Western blot loading equal amounts of protein from tumor biopsies.
Cell extracts were prepared by homogenization as described for HN5 xenografts.
as §1, with “BT474” for “The”, “xenografts (subcutaneous) were established as described in Materials and Methods. […] Controls were treated with vehicle alone. […]” for “implant was removed after the final treatment dose.”

T1 sequence (P04626 23-1255): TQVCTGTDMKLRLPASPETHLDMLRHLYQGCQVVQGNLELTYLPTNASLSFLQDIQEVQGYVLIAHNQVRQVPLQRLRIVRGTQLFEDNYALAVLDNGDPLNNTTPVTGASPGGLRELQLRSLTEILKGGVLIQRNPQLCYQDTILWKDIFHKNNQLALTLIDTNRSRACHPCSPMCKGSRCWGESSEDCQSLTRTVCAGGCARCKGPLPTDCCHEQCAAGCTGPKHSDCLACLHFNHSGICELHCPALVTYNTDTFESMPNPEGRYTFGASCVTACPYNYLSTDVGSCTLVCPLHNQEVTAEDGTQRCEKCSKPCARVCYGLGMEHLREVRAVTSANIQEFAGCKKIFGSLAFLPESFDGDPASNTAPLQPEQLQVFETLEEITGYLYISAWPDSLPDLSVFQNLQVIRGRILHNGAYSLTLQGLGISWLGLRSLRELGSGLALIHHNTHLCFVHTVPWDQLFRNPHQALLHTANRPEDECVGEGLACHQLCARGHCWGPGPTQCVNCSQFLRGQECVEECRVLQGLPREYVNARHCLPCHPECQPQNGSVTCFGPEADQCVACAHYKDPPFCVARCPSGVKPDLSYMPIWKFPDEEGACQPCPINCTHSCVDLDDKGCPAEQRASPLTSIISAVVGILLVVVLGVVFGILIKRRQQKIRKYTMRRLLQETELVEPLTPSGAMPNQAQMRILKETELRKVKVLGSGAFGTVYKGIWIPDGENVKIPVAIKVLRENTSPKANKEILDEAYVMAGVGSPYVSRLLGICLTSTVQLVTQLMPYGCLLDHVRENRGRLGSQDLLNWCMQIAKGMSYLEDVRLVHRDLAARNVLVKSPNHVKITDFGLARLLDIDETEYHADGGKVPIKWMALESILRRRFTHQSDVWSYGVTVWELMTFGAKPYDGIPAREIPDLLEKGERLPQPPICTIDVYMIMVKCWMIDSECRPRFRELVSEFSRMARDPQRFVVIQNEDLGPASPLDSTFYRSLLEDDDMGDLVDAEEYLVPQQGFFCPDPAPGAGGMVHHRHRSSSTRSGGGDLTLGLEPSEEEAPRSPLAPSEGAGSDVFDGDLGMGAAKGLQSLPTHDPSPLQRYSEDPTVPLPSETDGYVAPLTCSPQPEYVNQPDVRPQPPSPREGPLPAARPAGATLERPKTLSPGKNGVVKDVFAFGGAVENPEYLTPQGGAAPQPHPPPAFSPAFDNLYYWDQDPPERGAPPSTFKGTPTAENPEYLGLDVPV

SMILES: CS(=O)(=O)CCNCc1ccc(-c2ccc3ncnc(Nc4ccc(OCc5cccc(F)c5)c(Cl)c4)c3c2)o1 [GW572016, N-{3-Chloro-4-[(3-fluorobenzyl)oxy]phenyl}-6-[5-({[2-(methylsulfonyl)ethyl]amino}methyl)-2-furyl]-4-quinazolinamine]
- baseline levels of p-Tyr/erbB2 (erbB2 [1]): inhibited
- erbB2 p-tyr (erbB2 [2]): had not decreased
- p-erk in the nuclei vs cells treated with epigen alone (pAKT): comparatively less
- total Erk1/2 steady state protein levels (Erk1/2; 100 mg/kg): without effects
- p-Erk1/2 (Erk1/2; 100 mg/kg oral twice daily, five doses): inhibited; also recorded: decreased

— patent US20070059785A1, “Biomarkers in cancer” (SMITHKLINE BEECHAM CORPORATION, priority 2003, published 2007)
